Measurements reported in PMC11971462, “Generation and validation of a novel multitarget small molecule in glioblastoma” (Cell Death & Disease, 2025).

Test system: GNS166 cells
Experiment: Label-free proteomics differential expression
Assay type: cell-based, human
Description: Proteomic studies were performed by the Proteomics Facility of the CIC bioGUNE by label-free relative quantification on nLC MS/MS. […] In both approaches, the top 20 enriched terms were plotted and the pathways were clustered using divisive hierarchical clustering based on pairwise Jaccard distances.

Compound: C#CCN(Cc1cc2cc(OCCCN3CCCCC3)ccc2n1S(=O)(=O)c1ccccc1)C(=O)CCCCCCC(=O)NO [DDI]
- LogFC CAF1B_HUMAN (protein Q13112 GN=CHAF1B): -1.512
- LogFC STK3_HUMAN (protein Q13188 GN=STK3): 0.6701
- Direction MD2L1_HUMAN (protein Q13257): Down
- LogFC MD2L1_HUMAN (protein Q13257): -1.113
- LogFC PABP4_HUMAN (protein Q13310 GN=PABPC4): -0.5988
- Direction MTA1_HUMAN (protein Q13330): Down
- LogFC MTA1_HUMAN (protein Q13330): -1.705
- Direction 2A5G_HUMAN (protein Q13362): Down
- LogFC 2A5G_HUMAN (protein Q13362): -1.224
- Direction SQSTM_HUMAN (protein Q13501): Down
- LogFC SQSTM_HUMAN (protein Q13501): -1.0987
- LogFC TBB3_HUMAN (protein Q13509 GN=TUBB3): 0.7942
- LogFC PKD2_HUMAN (protein Q13563 GN=PKD2): -0.7081
- LogFC TRA2A_HUMAN (protein Q13595 GN=TRA2A): -0.7095
- LogFC TBB2A_HUMAN (protein Q13885 GN=TUBB2A): 0.9316
- LogFC IDI1_HUMAN (protein Q13907 GN=IDI1): 0.7277
- Direction CKAP5_HUMAN (protein Q14008): Down
- LogFC CKAP5_HUMAN (protein Q14008): -0.6393
- Direction PDE1C_HUMAN (protein Q14123): Down
- LogFC PDE1C_HUMAN (protein Q14123): -1.117
- Direction EIF3A_HUMAN (protein Q14152): Down
- LogFC EIF3A_HUMAN (protein Q14152): -0.389
- Direction UBP2L_HUMAN (protein Q14157): Down
- LogFC UBP2L_HUMAN (protein Q14157): -0.8648
- LogFC TTL12_HUMAN (protein Q14166 GN=TTLL12): 0.5228
- Direction DOCK1_HUMAN (protein Q14185): Down
- LogFC DOCK1_HUMAN (protein Q14185): -1.615
- Direction DYHC1_HUMAN (protein Q14204): Down
- LogFC DYHC1_HUMAN (protein Q14204): -0.3165
- Direction NUCG_HUMAN (protein Q14249): Down
- LogFC NUCG_HUMAN (protein Q14249): -2.036
- Direction FLOT2_HUMAN (protein Q14254): Down
- LogFC FLOT2_HUMAN (protein Q14254): -1.186
- Direction GAS6_HUMAN (protein Q14393): Down
- LogFC GAS6_HUMAN (protein Q14393): -2.504
- LogFC PLSI_HUMAN (protein Q14651 GN=PLS1): 1.442
- Direction SMC1A_HUMAN (protein Q14683): Down
- LogFC SMC1A_HUMAN (protein Q14683): -0.5055
- LogFC LPIN1_HUMAN (protein Q14693 GN=LPIN1): 0.9551
- Direction UBP10_HUMAN (protein Q14694): Down
- LogFC UBP10_HUMAN (protein Q14694): -0.9311
- Direction KIF22_HUMAN (protein Q14807): Down
- LogFC KIF22_HUMAN (protein Q14807): -3.469
- LogFC CHD4_HUMAN (protein Q14839 GN=CHD4): -0.985
- Direction IMB1_HUMAN (protein Q14974): Down
- LogFC IMB1_HUMAN (protein Q14974): -0.6185
- Direction CND2_HUMAN (protein Q15003): Down
- LogFC CND2_HUMAN (protein Q15003): -1.758
- LogFC SART3_HUMAN (protein Q15020 GN=SART3): -0.5999
- Direction CND1_HUMAN (protein Q15021): Down
- LogFC CND1_HUMAN (protein Q15021): -2.0518
- Direction SNX17_HUMAN (protein Q15036): Down
- LogFC SNX17_HUMAN (protein Q15036): -1.453
- Direction SYK_HUMAN (protein Q15046): Down
- LogFC SYK_HUMAN (protein Q15046): -0.4877
- Direction OXA1L_HUMAN (protein Q15070): Down
- LogFC OXA1L_HUMAN (protein Q15070): -1.062
- LogFC PMVK_HUMAN (protein Q15126 GN=PMVK): 1.337
- Direction PLEC_HUMAN (protein Q15149): Down
- LogFC PLEC_HUMAN (protein Q15149): -0.7
- LogFC NECT1_HUMAN (protein Q15223 GN=NECTIN1): -1.589
- Direction LRC41_HUMAN (protein Q15345): Down
- LogFC LRC41_HUMAN (protein Q15345): -1.0607
- LogFC KS6A1_HUMAN (protein Q15418 GN=RPS6KA1): 1.988
- LogFC PP1R7_HUMAN (protein Q15435 GN=PPP1R7): 0.5315
- LogFC MARE2_HUMAN (protein Q15555 GN=MAPRE2): 3.286
- LogFC CIP4_HUMAN (protein Q15642 GN=TRIP10): 1.0065
- Direction PCH2_HUMAN (protein Q15645): Down
- LogFC PCH2_HUMAN (protein Q15645): -0.9654
- Direction MSMO1_HUMAN (protein Q15800): Down
- LogFC MSMO1_HUMAN (protein Q15800): -0.8085
- LogFC STXB2_HUMAN (protein Q15833 GN=STXBP2): 0.5821
- Direction PKN2_HUMAN (protein Q16513): Down
- LogFC PKN2_HUMAN (protein Q16513): -0.7145
- Direction DDB1_HUMAN (protein Q16531): Down
- LogFC DDB1_HUMAN (protein Q16531): -0.3715
- LogFC DPYL2_HUMAN (protein Q16555 GN=DPYSL2): 0.9356
- LogFC UBE2S_HUMAN (protein Q16763 GN=UBE2S): -1.229
- LogFC CP51A_HUMAN (protein Q16850 GN=CYP51A1): -0.6587
- LogFC CGT_HUMAN (protein Q16880 GN=UGT8): 1.956
- LogFC TRXR1_HUMAN (protein Q16881 GN=TXNRD1): 0.6582
- Direction NICA_HUMAN (protein Q92542): Down
- LogFC NICA_HUMAN (protein Q92542): -1.398
- Direction TM9S4_HUMAN (protein Q92544): Down
- LogFC TM9S4_HUMAN (protein Q92544): -1.2661
- LogFC TBCD5_HUMAN (protein Q92609 GN=TBC1D5): -0.4214
- LogFC NU205_HUMAN (protein Q92621 GN=NUP205): -0.751
- Direction PXDN_HUMAN (protein Q92626): Down
- LogFC PXDN_HUMAN (protein Q92626): -0.8349
- Direction AP2C_HUMAN (protein Q92754): Down
- LogFC AP2C_HUMAN (protein Q92754): -1.895
- Direction SYMPK_HUMAN (protein Q92797): Down
- LogFC SYMPK_HUMAN (protein Q92797): -0.8433
- LogFC KIFA3_HUMAN (protein Q92845 GN=KIFAP3): 1.431
- Direction ARHG1_HUMAN (protein Q92888): Down
- LogFC ARHG1_HUMAN (protein Q92888): -0.7775
- Direction ARHG2_HUMAN (protein Q92974): Down
- LogFC ARHG2_HUMAN (protein Q92974): -0.6456
- LogFC USP9X_HUMAN (protein Q93008 GN=USP9X): 0.7813
- Direction CUL5_HUMAN (protein Q93034): Down
- LogFC CUL5_HUMAN (protein Q93034): -0.617
- LogFC VPP1_HUMAN (protein Q93050 GN=ATP6V0A1): 1.447
- Direction MED12_HUMAN (protein Q93074): Down
- LogFC MED12_HUMAN (protein Q93074): -2.0643
- Direction KPBB_HUMAN (protein Q93100): Down
- LogFC KPBB_HUMAN (protein Q93100): -2.118
- Direction SEC62_HUMAN (protein Q99442): Down
- LogFC SEC62_HUMAN (protein Q99442): -2.138
- LogFC VAT1_HUMAN (protein Q99536 GN=VAT1): 1.276
- Direction NUP88_HUMAN (protein Q99567): Down
- LogFC NUP88_HUMAN (protein Q99567): -0.8011
- LogFC NEUS_HUMAN (protein Q99574 GN=SERPINI1): 4.964
- LogFC DNJC7_HUMAN (protein Q99615 GN=DNAJC7): -0.8769
- Direction MGST2_HUMAN (protein Q99735): Down
- LogFC MGST2_HUMAN (protein Q99735): -1.016
